Source: US20200405696A1, “INHIBITORS OF INDOLEAMINE 2,3-DIOXYGENASE AND/OR TRYPTOPHAN 2,3-DIOXYGENASE” (IDORSIA PHARMACEUTICALS LTD, priority 2018, published 2020)

Legend:
[1] = target: T1, Recombinant human TDO comprising amino acids 19-407 (Homo sapiens, UniProt P48775); experiment: TDO2 enzymatic assay (NFK quantified by LCMS); assay type: biochemical; details: 15 nM enzyme, 200 μM L-tryptophan, pH7, 30 minutes pre-incubation at RT; mean values when measured multiple times; read-out: hTDO activity (IC50 in nM)
T1 construct: Recombinant human TDO comprising amino acids 19-407 with a N-terminal hexahistidine tag; hexahistidine (His6) (N); made in house; host or cells: E. coli
T1 sequence (P48775 19-406 limits assumed): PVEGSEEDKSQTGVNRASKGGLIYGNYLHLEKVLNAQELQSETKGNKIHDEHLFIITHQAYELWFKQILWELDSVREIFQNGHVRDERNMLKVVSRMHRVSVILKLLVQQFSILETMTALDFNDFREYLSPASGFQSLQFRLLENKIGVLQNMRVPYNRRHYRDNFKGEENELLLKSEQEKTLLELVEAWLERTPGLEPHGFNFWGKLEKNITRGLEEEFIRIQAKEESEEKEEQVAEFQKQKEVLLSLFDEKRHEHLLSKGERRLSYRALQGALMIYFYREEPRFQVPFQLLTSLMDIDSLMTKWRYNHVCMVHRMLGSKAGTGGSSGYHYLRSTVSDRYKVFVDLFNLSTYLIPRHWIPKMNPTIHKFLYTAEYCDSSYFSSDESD
Procedure, shortened: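 NFK formed over 30 min at RT from 200 μM L-tryptophan was measured by LCMS, normalized to d5-tryptophan, after compound (0.5 nM–10 μM, duplicates, 0.6% DMSO) was preincubated 30 min with 15 nM recombinant His-tagged TDO 19-407 in phosphate buffer pH 7. IC50 from four-parameter logistic fit; repeats averaged.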

[2] = target: T2, Recombinant full-length human IDO1 (Homo sapiens, UniProt P14902); experiment: IDO1 enzymatic assay (NFK quantified by LCMS); assay type: biochemical; details: 2 nM enzyme, 5 μM L-tryptophan, pH6.5, 30 minutes pre-incubation at RT; mean values when measured multiple times; read-out: hIDO activity (IC50 in nM)
T2 construct: Recombinant full-length human IDO1 with a N-terminal hexahistidine tag; hexahistidine (His6) (N); made in house; host or cells: E. coli
T2 sequence (P14902 whole entry): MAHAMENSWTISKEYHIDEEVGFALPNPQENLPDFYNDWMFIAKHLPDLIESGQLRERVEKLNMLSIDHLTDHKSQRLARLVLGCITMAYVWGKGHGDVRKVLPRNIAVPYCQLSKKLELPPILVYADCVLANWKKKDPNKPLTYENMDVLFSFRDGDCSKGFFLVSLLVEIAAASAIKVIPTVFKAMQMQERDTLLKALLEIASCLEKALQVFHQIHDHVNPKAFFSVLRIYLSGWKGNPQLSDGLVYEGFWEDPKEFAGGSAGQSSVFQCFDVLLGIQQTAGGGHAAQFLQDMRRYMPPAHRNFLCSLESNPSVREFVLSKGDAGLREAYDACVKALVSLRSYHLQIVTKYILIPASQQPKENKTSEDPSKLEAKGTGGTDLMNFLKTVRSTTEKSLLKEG
Procedure, shortened: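 IC50 comes from four-parameter logistic fits of duplicate data, with NFK quantified by LCMS and normalized to L-Trp-(indole-d5). Compound (0.5 nM–10 μM) was preincubated 30 min at RT with 2 nM E. coli-expressed IDO1 before a 30 min reaction with 5 μM tryptophan in pH 6.5 buffer containing ascorbate and methylene blue.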

SMILES | IC50 [1] [nM] | IC50 [2] [nM]
OC(c1cnn(-c2cccnc2)c1)c1c(C2CC2)sc2cncn12 (racemic) [Example 260, rac-(2-Cyclopropyl-imidazo[5,1-b]thiazol-3-yl)-(1-pyridin-3-yl-1H-pyrazol-4-yl)-methanol] | 6510 | 43.2
CCOC(=O)COc1ccc(-n2cc(C(O)c3c(C4CC4)sc4cncn34)nn2)cc1 (racemic) [Example 231, rac-(4-{4-[(2-Cyclopropyl-imidazo[5,1-b]thiazol-3-yl)-hydroxy-methyl]-[1,2,3]triazol-1-yl}-phenoxy)-acetic acid ethyl ester] | > 10200 | 22.3
C=C(C)c1sc2cncn2c1C(O)c1cn(-c2ccc(OCC3(F)COC3)c(Cl)c2)nn1 (racemic) [Example 299, rac-{1-[3-Chloro-4-(3-fluoro-oxetan-3-ylmethoxy)-phenyl]-1H-[1,2,3]triazol-4-yl}-(2-isopropenyl-imidazo[5,1-b]thiazol-3-yl)-methanol] | > 10200 | 34.8
COc1ccc(-n2cc(C(O)c3c(-c4cccc(F)c4)sc4cncn34)nn2)cc1 (racemic) [Example 64, rac-[2-(3-Fluoro-phenyl)-imidazo[5,1-b]thiazol-3-yl]-[1-(4-methoxy-phenyl)-1H-[1,2,3]triazol-4-yl]-methanol] | > 10200 | 177
CCOc1ccc(-n2cc(C(O)c3c(C4CC4)sc4cncn34)nn2)cc1 (racemic) [Example 32, rac-(2-Cyclopropyl-imidazo[5,1-b]thiazol-3-yl)-[1-(4-ethoxy-phenyl)-1H-[1,2,3]triazol-4-yl]-methanol] | > 10200 | 5.3
CC(C)Oc1ccc(-n2cc(C(O)c3c(C4CC4)sc4cncn34)nn2)cn1 (racemic) [Example 82, rac-(2-Cyclopropyl-imidazo[5,1-b]thiazol-3-yl)-[1-(6-isopropoxy-pyridin-3-yl)-1H-[1,2,3]triazol-4-yl]-methanol] | > 10200 | 44.2
Cc1sc2cncn2c1C(O)c1cc(-c2ccccc2)no1 (racemic) [Example 156, rac-(2-Methyl-imidazo[5,1-b]thiazol-3-yl)-(3-phenyl-isoxazol-5-yl)-methanol] | > 10200 | 406
CC(C)(O)COc1ccc(-n2cc(C(O)c3c(C4CC4)sc4cncn34)nn2)cc1 (racemic) [Example 139, rac-1-(4-{4-[(2-Cyclopropyl-imidazo[5,1-b]thiazol-3-yl)-hydroxy-methyl]-[1,2,3]triazol-1-yl}-phenoxy)-2-methyl-propan-2-ol] | > 10200 | 14.6
COCCCNC(=O)c1ccc(-n2cc(C(O)c3c(C4CC4)sc4cncn34)nn2)cc1 (racemic) [Example 106, rac-4-{4-[(2-Cyclopropyl-imidazo[5,1-b]thiazol-3-yl)-hydroxy-methyl]-[1,2,3]triazol-1-yl}-N-(3-methoxy-propyl)-benzamide] | > 10200 | 19.6
Oc1cc(Cl)ccc1-n1cc(C(O)c2c(C3CC3)sc3cncn23)nn1 (racemic) [Example 221, rac-5-Chloro-2-{4-[(2-cyclopropyl-imidazo[5,1-b]thiazol-3-yl)-hydroxy-methyl]-[1,2,3]triazol-1-yl}-phenol] | > 10200 | 90.2
Cc1sc2cncn2c1C(O)c1ccc(-c2ccccc2)s1 (racemic) [Example 154, rac-(2-Methyl-imidazo[5,1-b]thiazol-3-yl)-(5-phenyl-thiophen-2-yl)-methanol] | 7270 | 366
Cc1sc2cncn2c1C(O)c1cn(-c2ccc(C3(CO)CC3)cc2)nn1 (racemic) [Example 57, rac-{1-[4-(1-Hydroxymethyl-cyclopropyl)-phenyl]-1H-[1,2,3]triazol-4-yl}-(2-methyl-imidazo[5,1-b]thiazol-3-yl)-methanol] | > 10200 | 391
CCc1sc2cncn2c1C(O)c1cn(Cc2ccccc2)nn1 (racemic) [Example 53, rac-(1-Benzyl-1H-[1,2,3]triazol-4-yl)-(2-ethyl-imidazo[5,1-b]thiazol-3-yl)-methanol] | > 10200 | 73.6
Oc1c(F)cc(-n2cc(C(O)c3c(C4CC4)sc4cncn34)nn2)cc1F (racemic) [Example 149, rac-4-{4-[(2-Cyclopropyl-imidazo[5,1-b]thiazol-3-yl)-hydroxy-methyl]-[1,2,3]triazol-1-yl}-2,6-difluoro-phenol] | > 10200 | 3.8
CC(C)C(=O)Nc1ccc(-n2cc(C(O)c3c(C4CC4)sc4cncn34)nn2)cc1Cl (racemic) [Example 284, rac-N-(2-Chloro-4-{4-[(2-cyclopropyl-imidazo[5,1-b]thiazol-3-yl)-hydroxy-methyl]-[1,2,3]triazol-1-yl}-phenyl)-isobutyramide] | > 10200 | 273
Cc1sc2cncn2c1C(O)c1cn(-c2ccc(OCC3CC3)cc2)nn1 (racemic) [Example 63, rac-[1-(4-Cyclopropylmethoxy-phenyl)-1H-[1,2,3]triazol-4-yl]-(2-methyl-imidazo[5,1-b]thiazol-3-yl)-methanol] | > 10200 | 27.7
OC(c1cn(-c2ccc(C(F)(F)F)cc2)nn1)c1c(C2CC2)sc2cncn12 (racemic) [Example 6, rac-(2-Cyclopropyl-imidazo[5,1-b]thiazol-3-yl)-[1-(4-trifluoromethyl-phenyl)-1H-[1,2,3]triazol-4-yl]-methanol] | > 10200 | 119
OC(c1cn(-c2ccccn2)nn1)c1c(C2CC2)sc2cncn12 (racemic) [Example 14, rac-(2-Cyclopropyl-imidazo[5,1-b]thiazol-3-yl)-(1-pyridin-2-yl-1H-[1,2,3]triazol-4-yl)-methanol] | > 10200 | 79.6

The next lines start with the values.

IC50 [1] [nM] | IC50 [2] [nM] | SMILES
> 10200 | 1250 | OC(c1ccc(-c2ccc(C(F)(F)F)cc2)s1)c1c(C2CC2)sc2cncn12 (racemic) [Example 162, rac-(2-Cyclopropyl-imidazo[5,1-b]thiazol-3-yl)-[5-(4-trifluoromethyl-phenyl)-thiophen-2-yl]-methanol]
> 10200 | 23.6 | CC(C)(O)CCOc1ccc(-n2cc(C(O)c3c(C4(C)CC4)sc4cncn34)nn2)cc1Cl (racemic) [Example 303, rac-4-[2-Chloro-4-(4-{hydroxy-[2-(1-methyl-cyclopropyl)-imidazo[5,1-b]thiazol-3-yl]-methyl}-[1,2,3]triazol-1-yl)-phenoxy]-2-methyl-butan-2-ol]
> 10200 | 55.8 | CC(C)(C)OC(=O)Nc1ccc(-n2cc(C(O)c3c(C4CC4)sc4cncn34)nn2)c(F)c1 (racemic) [Example 151, rac-(4-{4-[(2-Cyclopropyl-imidazo[5,1-b]thiazol-3-yl)-hydroxy-methyl]-[1,2,3]triazol-1-yl}-3-fluoro-phenyl)-carbamic Acid Tert-Butyl Ester]
> 10200 | 12.6 | OC(c1cn(-c2ccc(OCC3COC3)cc2)nn1)c1c(C2CC2)sc2cncn12 (racemic) [Example 88, rac-(2-Cyclopropyl-imidazo[5,1-b]thiazol-3-yl)-{1-[4-(oxetan-3-ylmethoxy)-phenyl]-1H-[1,2,3]triazol-4-yl}-methanol]
> 10200 | 257 | COc1ccc(-c2ccc(C(O)c3c(C4CC4)sc4cncn34)s2)cc1 (racemic) [Example 161, rac-(2-Cyclopropyl-imidazo[5,1-b]thiazol-3-yl)-[5-(4-methoxy-phenyl)-thiophen-2-yl]-methanol]
> 10200 | 27.8 | OCCOCCOCCOc1ccc(-n2cc(C(O)c3c(C4CC4)sc4cncn34)nn2)cc1 (racemic) [Example 201, rac-2-{2-[2-(4-{4-[(2-Cyclopropyl-imidazo[5,1-b]thiazol-3-yl)-hydroxy-methyl]-[1,2,3]triazol-1-yl}-phenoxy)-ethoxy]-ethoxy}-ethanol]
> 10200 | 14.5 | O=C(NCCCO)c1ccc(-n2cc(C(O)c3c(C4CC4)sc4cncn34)nn2)cc1 (racemic) [Example 184, rac-4-{4-[(2-Cyclopropyl-imidazo[5,1-b]thiazol-3-yl)-hydroxy-methyl]-[1,2,3]triazol-1-yl}-N-(3-hydroxy-propyl)-benzamide]
8710 | 15 | CCc1sc2cncn2c1C(O)c1cn(-c2ccc(C(=O)NC3CC3)cc2)nn1 (racemic) [Example 125, rac-N-Cyclopropyl-4-{4-[(2-ethyl-imidazo[5,1-b]thiazol-3-yl)-hydroxy-methyl]-[1,2,3]triazol-1-yl}-benzamide]
> 10200 | 13.9 | CC(C)(O)CCOc1ccc(-n2cc(C(O)c3c(C(C)(F)F)sc4cncn34)nn2)cc1Cl (racemic) [Example 307, rac-4-[2-Chloro-4-(4-{[2-(1,1-difluoro-ethyl)-imidazo[5,1-b]thiazol-3-yl]-hydroxy-methyl}-[1,2,3]triazol-1-yl)-phenoxy]-2-methyl-butan-2-ol]
5320 | 230 | OC(c1ccc(-c2cccnc2)s1)c1c(C2CC2)sc2cncn12 (racemic) [Example 160, rac-(2-Cyclopropyl-imidazo[5,1-b]thiazol-3-yl)-(5-pyridin-3-yl-thiophen-2-yl)-methanol]
